Source: patent publication US20240254143A1, “OREXIN RECEPTOR AGONISTS AND USES THEREOF” (JAZZ PHARMACEUTICALS IRELAND LIMITED, priority 2021, published 2024)

Target: T1, human recombinant OX2 (hOX2) receptor (Homo sapiens, UniProt O43614)
T1 construct: host or cells: CHO cells
T1 sequence (O43614 1-444): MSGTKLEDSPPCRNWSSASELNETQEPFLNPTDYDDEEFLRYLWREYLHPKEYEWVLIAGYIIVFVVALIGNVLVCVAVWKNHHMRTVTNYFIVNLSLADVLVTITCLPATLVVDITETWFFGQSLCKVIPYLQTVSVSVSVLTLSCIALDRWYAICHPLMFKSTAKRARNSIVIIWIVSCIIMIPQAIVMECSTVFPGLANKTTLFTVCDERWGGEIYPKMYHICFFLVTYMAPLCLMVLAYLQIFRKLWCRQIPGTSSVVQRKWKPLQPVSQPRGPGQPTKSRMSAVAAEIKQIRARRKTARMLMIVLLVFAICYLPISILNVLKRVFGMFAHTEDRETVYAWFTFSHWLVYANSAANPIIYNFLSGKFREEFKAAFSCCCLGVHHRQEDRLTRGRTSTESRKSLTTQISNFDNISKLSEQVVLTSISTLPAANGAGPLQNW
Assay: IP-1 accumulation assay (IP-One HTRF) in hOX2-CHO cells
Type: cell-based
Settings: 60 min at 37° C., mean of at least two independent experiments, read-out: EC50_OX2R Category
Procedure, shortened: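 hOX2 receptor expressed in CHO cells, seeded in suspension in HBSS with 20 mM HEPES pH 7.4, LiCl and 0.1% BSA; compounds tested as 11-point CRC (0.5% DMSO final), 60 min at 37 °C. IP-1 read by HTRF (665/615 ratio) after 60 min lysis at room temperature; response as % of maximal OX-A response, EC50 by four-parameter logistic fit, mean of ≥2 experiments in duplicate.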

EC50 [µM]	SMILES
1 to 10	COCC(=O)N1[C@H](C)C[C@@]2(COCC(=O)N2)[C@@H]1Cc1cccc(-c2cc(F)cc(F)c2)c1F [Example 88, (1S,3R,5S)-2-(2-methoxyacetyl)-3-methyl-1-({2,3′,5′-trifluoro-[1,1′-biphenyl]-3-yl}methyl)-9-oxa-2,6-diazaspiro[4.5]decan-7-one]
0.1 to 1	C[C@@H]1C[C@@]2(COCC(=O)N2)[C@H](Cc2cccc(-c3cc(F)cc(F)c3)c2F)N1C(=O)[C@H]1CCO1 [Example 89, (1S,3R,5S)-3-methyl-2-[(2R)-oxetane-2-carbonyl]-1-({2,3′,5′-trifluoro-[1,1′-biphenyl]-3-yl}methyl)-9-oxa-2,6-diazaspiro[4.5]decan-7-one]
> 10	C[C@@H]1C[C@@]2(COCC(=O)N2)[C@H](Cc2cccc(-c3cc(F)cc(F)c3)c2F)N1S(C)(=O)=O [Example 93, (1S,3R,5S)-2-methanesulfonyl-3-methyl-1-({2,3′,5′-trifluoro-[1,1′-biphenyl]-3-yl}methyl)-9-oxa-2,6-diazaspiro[4.5]decan-7-one]
